# In patent US20090197944A1, “AGENT FOR IMPROVING MUSCLE FORCE” (KAO CORPORATION, priority 2006, published 2009):
# Tested on: isolated soleus muscle
# Experiment: Electrical stimulation of isolated muscle (fatigue resistance)
# Assay type: ex vivo tissue, mice
# Settings: 50 μM in Krebs solution, 37° C., equilibrated three minutes, stimulation 330 ms/2-sec, 40 Hz; vs control solution
# Description: Mice were bred in a similar manner to that for the control group of Test Example 1. Thereafter, soleus muscle was removed from each mouse. The isolated soleus muscle was fixed to a transducer (FORT100, product of WPI) in 37° C. Krebs solution (aeration: 95%-oxygen, 5%-carbon dioxide). The effect of catechins on the isolated muscle was analyzed. Specifically, each of eight catechin species (catechin, epicatechin, gallocatechin, epigallocatechin, catechin gallate, epicatechin gallate, gallocatechin gallate, and epigallocatechin gallate) was dissolved in a Krebs solution to a concentration of 50 μM. Each muscle piece was equilibrated in each solution for three minutes, and electrically stimulated (330 ms/2-sec). The frequency of stimulation was 40 Hz. […] A Krebs solution to which no catechin species had been added was employed as a control solution.
row,SMILES,muscle force after 1 minute stimulation as fatigue index (ratio to muscle force at the start of electrical stimulation defined as 1)
1,O=C(O[C@@H]1Cc2c(O)cc(O)cc2O[C@@H]1c1ccc(O)c(O)c1)c1cc(O)c(O)c(O)c1 [epicatechin gallate],improved muscle fatigue resistance
2,O=C(O[C@@H]1Cc2c(O)cc(O)cc2O[C@@H]1c1cc(O)c(O)c(O)c1)c1cc(O)c(O)c(O)c1 [epigallocatechin gallate],improved muscle fatigue resistance
3,O=C(O[C@@H]1Cc2c(O)cc(O)cc2O[C@H]1c1cc(O)c(O)c(O)c1)c1cc(O)c(O)c(O)c1 [gallocatechin gallate],improved muscle fatigue resistance
